From patent US20250320193A1, “OXOISOINDOLINYL SUBSTITUTED PIPERIDINEDIONE DERIVATIVE AND USE THEREOF” (GLUETACS THERAPEUTICS (SHANGHAI) CO., LTD., priority 2022, published 2025)

Key:
[1] = target: human Cereblon WT GST-tagged protein (Homo sapiens (Human), UniProt Q96SW2); experiment: CRBN-binding affinity, HTRF (CEREBLON BINDING kit, CISBIO); conditions: HTRF inhibitory activity
In short: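 HTRF competition format: test compound displaces Thalidomide-Red from GST-tagged human Cereblon WT, detected with a Eu-labelled anti-GST antibody. Percent CRBN binding inhibition was derived from the 620 nm signal, normalized to solvent-control and protein-free blank wells.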

IKZF1 = IKZF1 (Homo sapiens (Human), UniProt Q13422+Q96SW2); experiment: Western blot, substrate protein expression in hPBMC: IKZF1; assay type: cell-based; conditions: hPBMC, compound 500 nM, 24 hours, Western blot
In short: (§1)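 hPBMC, 1×10^6 cells/mL, 24 h compound exposure; RIPA lysis, BCA protein assay, SDS-PAGE, NC membrane immunoblot. Densitometry vs internal control → % protein remaining; degradation % = 100% − remaining; DC50 = conc. at 50% of DMSO band signal.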

[2] = system: MM.1S cells (human multiple myeloma cells); experiment: Tumor cell proliferation inhibition, CCK-8; assay type: cell-based; conditions: MM1.S, MM.1S cells, CCK-8, read-out: inhibitory activity (IC50, nM) MM.1S
In short: (§2)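 STR-authenticated, mycoplasma-free cells cultured at 37° C with 5% CO2. Compound added 24 h post-seeding, 10 μM top, 5-fold × 10. Viability by CCK-8; IC50 from inhibition curve.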

[3] = system: CCRF-CEM (human acute lymphoblastic leukemia T-cells); experiment: Tumor cell proliferation inhibition, CCK-8; assay type: cell-based; conditions: CCRF-CEM cells, CCK-8, read-out: inhibitory activity (IC50, nM) CCRF-CEM
In short: as §2

[4] = system: MM.1R cells (dexamethasone-resistant human multiple myeloma cells); experiment: Tumor cell proliferation inhibition, CCK-8; assay type: cell-based; conditions: MM.1R cells, CCK-8, read-out: inhibitory activity (IC50, nM) MM.1R
In short: as §2

IKZF3 = IKZF3 (Homo sapiens (Human), UniProt Q96SW2+Q9UKT9); experiment: Western blot, substrate protein expression in hPBMC: IKZF3; assay type: cell-based; conditions: hPBMC, compound 500 nM, 24 hours, Western blot
In short: as §1

GSPT1 = GSPT1 (Homo sapiens (Human), UniProt P15170+Q96SW2); experiment: Western blot, substrate protein expression in hPBMC: GSPT1; assay type: cell-based; conditions: hPBMC, compound 500 nM, 24 hours, Western blot
In short: as §1

[5] = system: CAL-62 (human thyroid carcinoma cells); experiment: Tumor cell proliferation inhibition, CCK-8; assay type: cell-based; conditions: CAL-62 cells, CCK-8, read-out: inhibitory activity (IC50, nM) CAL-62
In short: as §2

[6] = system: Jurkat cells (human T-cell leukemia cells); experiment: Tumor cell proliferation inhibition, CCK-8; assay type: cell-based; conditions: Jurkat cells, CCK-8, read-out: inhibitory activity (IC50, nM) Jurkat
In short: as §2

[7] = system: TMD8 cells (human diffuse large B-cell lymphoma cells); experiment: Tumor cell proliferation inhibition, CCK-8; assay type: cell-based; conditions: TMD8 cells, CCK-8, read-out: inhibitory activity (IC50, nM) TMD8
In short: as §2

[8] = system: MDA-MB-231 cells (human breast adenocarcinoma cells); experiment: Tumor cell proliferation inhibition, CCK-8; assay type: cell-based; conditions: MDA-MB-231 cells, CCK-8, read-out: inhibitory activity (IC50, nM) MDA-MB-231
In short: as §2

[9] = system: H146 cells (human small cell lung carcinoma cells); experiment: Tumor cell proliferation inhibition, CCK-8; assay type: cell-based; conditions: NCI-H146, H146 cells, CCK-8, read-out: inhibitory activity (IC50, nM) H146
In short: as §2

Chain of human Cereblon WT GST-tagged protein (Q96SW2 whole entry): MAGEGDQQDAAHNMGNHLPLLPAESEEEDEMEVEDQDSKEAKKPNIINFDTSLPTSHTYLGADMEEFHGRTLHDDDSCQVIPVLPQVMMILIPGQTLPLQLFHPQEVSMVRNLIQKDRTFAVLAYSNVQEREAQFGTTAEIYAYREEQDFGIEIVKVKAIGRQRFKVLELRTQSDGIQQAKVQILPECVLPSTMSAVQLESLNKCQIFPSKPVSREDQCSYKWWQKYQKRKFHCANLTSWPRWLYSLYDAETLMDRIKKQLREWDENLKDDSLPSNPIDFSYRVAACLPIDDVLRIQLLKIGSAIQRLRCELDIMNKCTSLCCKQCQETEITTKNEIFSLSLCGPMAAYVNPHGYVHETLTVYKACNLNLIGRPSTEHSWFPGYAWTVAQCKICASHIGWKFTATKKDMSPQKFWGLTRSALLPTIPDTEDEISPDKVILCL
Chain of GSPT1 (P15170 whole entry): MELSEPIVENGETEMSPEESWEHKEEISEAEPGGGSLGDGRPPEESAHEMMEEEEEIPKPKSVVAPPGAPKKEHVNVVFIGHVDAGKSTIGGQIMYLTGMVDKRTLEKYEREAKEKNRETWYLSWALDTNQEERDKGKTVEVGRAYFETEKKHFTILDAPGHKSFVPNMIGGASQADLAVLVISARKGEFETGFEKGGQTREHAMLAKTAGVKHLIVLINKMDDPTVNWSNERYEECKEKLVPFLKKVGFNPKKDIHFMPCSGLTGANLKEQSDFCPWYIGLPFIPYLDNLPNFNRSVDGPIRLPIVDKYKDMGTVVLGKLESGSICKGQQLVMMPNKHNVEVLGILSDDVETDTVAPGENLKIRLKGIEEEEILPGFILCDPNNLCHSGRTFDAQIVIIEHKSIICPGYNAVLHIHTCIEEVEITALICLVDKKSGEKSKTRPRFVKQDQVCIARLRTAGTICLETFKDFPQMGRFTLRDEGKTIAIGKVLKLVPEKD
Chain of GSPT1 (Q96SW2 whole entry): as the sequence (Q96SW2 whole entry) above
Chain of GSPT1 (Q16531 whole entry partner): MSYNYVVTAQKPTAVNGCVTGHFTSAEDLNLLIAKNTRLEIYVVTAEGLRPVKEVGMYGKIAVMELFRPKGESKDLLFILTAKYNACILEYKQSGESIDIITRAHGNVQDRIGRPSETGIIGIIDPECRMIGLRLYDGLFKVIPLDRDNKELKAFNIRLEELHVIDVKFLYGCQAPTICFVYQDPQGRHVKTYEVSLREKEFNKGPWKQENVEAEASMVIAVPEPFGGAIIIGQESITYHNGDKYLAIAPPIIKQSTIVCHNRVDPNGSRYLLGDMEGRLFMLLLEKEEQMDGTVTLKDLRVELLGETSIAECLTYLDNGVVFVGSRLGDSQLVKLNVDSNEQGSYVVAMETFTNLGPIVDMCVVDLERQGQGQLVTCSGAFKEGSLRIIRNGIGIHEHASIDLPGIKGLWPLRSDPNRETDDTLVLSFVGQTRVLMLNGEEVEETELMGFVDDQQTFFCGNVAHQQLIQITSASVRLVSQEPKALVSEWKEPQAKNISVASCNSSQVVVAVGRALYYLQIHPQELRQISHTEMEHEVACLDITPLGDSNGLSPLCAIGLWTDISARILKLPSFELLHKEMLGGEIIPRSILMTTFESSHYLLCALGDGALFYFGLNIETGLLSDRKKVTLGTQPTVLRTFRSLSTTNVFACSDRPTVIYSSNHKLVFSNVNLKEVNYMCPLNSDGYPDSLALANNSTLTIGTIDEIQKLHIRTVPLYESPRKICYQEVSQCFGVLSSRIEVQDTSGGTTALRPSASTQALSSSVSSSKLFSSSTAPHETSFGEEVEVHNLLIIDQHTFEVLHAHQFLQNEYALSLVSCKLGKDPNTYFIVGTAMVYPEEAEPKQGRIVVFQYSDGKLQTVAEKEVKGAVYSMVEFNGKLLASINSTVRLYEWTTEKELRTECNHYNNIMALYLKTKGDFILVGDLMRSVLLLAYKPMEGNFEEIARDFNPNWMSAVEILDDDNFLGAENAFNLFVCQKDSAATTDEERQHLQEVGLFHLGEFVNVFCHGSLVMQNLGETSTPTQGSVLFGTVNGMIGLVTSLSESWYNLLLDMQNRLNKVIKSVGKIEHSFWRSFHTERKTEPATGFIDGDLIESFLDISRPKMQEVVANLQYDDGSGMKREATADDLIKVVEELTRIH
Chain of IKZF1 (Q13422 whole entry): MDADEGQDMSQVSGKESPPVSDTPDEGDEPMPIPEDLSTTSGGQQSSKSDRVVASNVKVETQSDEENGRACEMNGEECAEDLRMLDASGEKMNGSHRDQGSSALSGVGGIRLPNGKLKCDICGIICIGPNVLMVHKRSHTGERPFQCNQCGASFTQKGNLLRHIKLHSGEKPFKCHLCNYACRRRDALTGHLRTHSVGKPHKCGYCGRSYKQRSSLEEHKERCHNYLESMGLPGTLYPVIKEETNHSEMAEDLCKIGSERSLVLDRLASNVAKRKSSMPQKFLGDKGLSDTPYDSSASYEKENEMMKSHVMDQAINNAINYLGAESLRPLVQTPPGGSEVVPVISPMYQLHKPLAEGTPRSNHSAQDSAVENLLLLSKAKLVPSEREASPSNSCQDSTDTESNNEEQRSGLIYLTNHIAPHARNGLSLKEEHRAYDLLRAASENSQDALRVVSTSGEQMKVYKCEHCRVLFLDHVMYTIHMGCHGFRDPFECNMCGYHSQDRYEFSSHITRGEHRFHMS
Chain of IKZF1 (Q96SW2 whole entry): as the sequence (Q96SW2 whole entry) above
Chain of IKZF1 (Q16531 whole entry partner): as the sequence (Q16531 whole entry partner) above
Chain of IKZF3 (Q9UKT9 whole entry): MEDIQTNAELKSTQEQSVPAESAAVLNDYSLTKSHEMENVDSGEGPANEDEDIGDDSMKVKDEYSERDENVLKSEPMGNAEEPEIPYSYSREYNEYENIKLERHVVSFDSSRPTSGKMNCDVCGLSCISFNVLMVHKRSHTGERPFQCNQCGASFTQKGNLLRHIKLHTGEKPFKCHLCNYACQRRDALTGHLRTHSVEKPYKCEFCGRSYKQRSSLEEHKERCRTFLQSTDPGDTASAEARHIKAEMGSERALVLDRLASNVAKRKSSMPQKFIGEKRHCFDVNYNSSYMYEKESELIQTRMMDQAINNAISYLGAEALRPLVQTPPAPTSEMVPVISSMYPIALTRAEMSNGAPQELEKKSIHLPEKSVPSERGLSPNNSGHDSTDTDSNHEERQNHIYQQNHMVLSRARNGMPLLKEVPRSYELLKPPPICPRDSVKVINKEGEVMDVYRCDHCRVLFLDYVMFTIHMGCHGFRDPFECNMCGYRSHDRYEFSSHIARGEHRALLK
Chain of IKZF3 (Q96SW2 whole entry): as the sequence (Q96SW2 whole entry) above
Chain of IKZF3 (Q16531 whole entry partner): as the sequence (Q16531 whole entry partner) above

Compound | IC50 [1] [nM] | substrate protein remaining % IKZF1 (IKZF1) | IC50 [2] [nM] | IC50 [3] [nM] | IC50 [4] [nM] | substrate protein remaining % IKZF3 (IKZF3) | substrate protein remaining % GSPT1 (GSPT1) | IC50 [5] [nM] | IC50 [6] [nM] | IC50 [7] [nM] | IC50 [8] [nM] | IC50 [9] [nM]
O=C1CCC(N2Cc3cc(CN4CCN(C(c5ccc(Cl)cc5)c5ccc(Cl)cc5)CC4)ccc3C2=O)C(=O)N1 (stereo not drawn) [GT-03566, 3-(5-((4-(bis(4-chlorophenyl)methyl)piperazin-1-yl)methyl)-1-oxoisoindolin-2-yl)piperidine-2,6-dione] | 1000 to 1900 | A (A represents 0% ≤ substrate protein remaining % ≤ 50%) | 500 to 1000 | 10 to 50 | 100 to 500 | A (A represents 0% ≤ substrate protein remaining % ≤ 50%) | A (A represents 0% ≤ substrate protein remaining % ≤ 50%) |  |  |  |  | 
O=C1CCC(N2Cc3cc(CN4CCN(C(c5ccc(Cl)cc5)c5ccc(Cl)cc5)CC4)c(F)cc3C2=O)C(=O)N1 (stereo not drawn) [GT-03699, 3-(5-((4-(bis(4-chlorophenyl)methyl)piperazin-1-yl)methyl)-6-fluoro-1-oxoisoindolin-2-yl)piperidine-2,6-dione] |  | B (B represents substrate protein remaining % > 50%) | 50 to 100 | 10 to 50 | 50 to 100 | A (A represents 0% ≤ substrate protein remaining % ≤ 50%) | A (A represents 0% ≤ substrate protein remaining % ≤ 50%) | 50 to 100 |  |  |  | 
O=C1CCC(N2Cc3c(ccc(CN4C[C@@H]5C[C@H]4CN5C(c4ccccc4)c4ccccc4)c3F)C2=O)C(=O)N1 (stereo partly drawn) [GT-03724, 3-(5-(((1S,4S)-5-benzhydryl-2,5-diazabicyclo[2.2.1]heptan-2-yl)methyl)-4-fluoro-1-oxoisoindolin-2-yl)piperidine-2,6-dione] | < 500 | A (A represents 0% ≤ substrate protein remaining % ≤ 50%) | 10 to 50 | 10 to 50 | 10 to 50 | A (A represents 0% ≤ substrate protein remaining % ≤ 50%) | A (A represents 0% ≤ substrate protein remaining % ≤ 50%) |  |  |  |  | 
O=C1CCC(N2Cc3cc(CN4C5CCC4CN(C(c4ccccc4)c4ccccc4)C5)ccc3C2=O)C(=O)N1 (stereo not drawn) [GT-03837, 3-(5-((3-benzhydryl-3,8-diazabicyclo[3.2.1]octan-8-yl)methyl)-1-oxoisoindolin-2-yl)piperidine-2,6-dione] | < 500 | B (B represents substrate protein remaining % > 50%) | 10 to 50 |  | 500 to 1000 | A (A represents 0% ≤ substrate protein remaining % ≤ 50%) | A (A represents 0% ≤ substrate protein remaining % ≤ 50%) |  |  |  |  | 
O=C1CCC(N2Cc3cc(CN4CCN(C(c5ccccc5)c5ccncc5)CC4)ccc3C2=O)C(=O)N1 (stereo not drawn) [GT-04205, 3-(1-oxo-5-((4-(phenyl(pyridin-4-yl)methyl)piperazin-1-yl)methyl)isoindolin-2-yl)piperidine-2,6-dione] | < 500 | A (A represents 0% ≤ substrate protein remaining % ≤ 50%) | 100 to 500 | 50 to 100 |  | A (A represents 0% ≤ substrate protein remaining % ≤ 50%) | A (A represents 0% ≤ substrate protein remaining % ≤ 50%) | 10 to 50 | 500 to 1000 | 50 to 100 |  | 
O=C1CCC(N2Cc3cc(CN4CCC(N(c5ccccc5)c5ccccc5)CC4)ccc3C2=O)C(=O)N1 (stereo not drawn) [GT-04225, 3-(5-((4-(diphenylamino)piperidin-1-yl)methyl)-1-oxoisoindolin-2-yl)piperidine-2,6-dione] | < 500 | A (A represents 0% ≤ substrate protein remaining % ≤ 50%) | < 1 | < 1 |  | A (A represents 0% ≤ substrate protein remaining % ≤ 50%) | A (A represents 0% ≤ substrate protein remaining % ≤ 50%) | < 1 | < 1 | 1 to 10 | 1 to 10 | 1 to 10
O=C1CCC(N2Cc3c(ccc(CN4CCC(N(c5ccccc5)c5ccccc5)CC4)c3F)C2=O)C(=O)N1 (stereo not drawn) [GT-04226, 3-(5-((4-(diphenylamino)piperidin-1-yl)methyl)-4-fluoro-1-oxoisoindolin-2-yl)piperidine-2,6-dione] | < 500 | A (A represents 0% ≤ substrate protein remaining % ≤ 50%) | < 1 | < 1 |  | A (A represents 0% ≤ substrate protein remaining % ≤ 50%) | A (A represents 0% ≤ substrate protein remaining % ≤ 50%) | < 1 | < 1 | 1 to 10 | 1 to 10 | 1 to 10
O=C1CCC(N2Cc3cc(CN4CCC(N(c5ccccc5)c5ccccc5)CC4)c(F)cc3C2=O)C(=O)N1 (stereo not drawn) [GT-04227, 3-(5-((4-(diphenylamino)piperidin-1-yl)methyl)-6-fluoro-1-oxoisoindolin-2-yl)piperidine-2,6-dione] | 500 to 1000 | A (A represents 0% ≤ substrate protein remaining % ≤ 50%) | < 1 | < 1 |  | A (A represents 0% ≤ substrate protein remaining % ≤ 50%) | A (A represents 0% ≤ substrate protein remaining % ≤ 50%) | < 1 | < 1 | 1 to 10 | 1 to 10 | 1 to 10
O=C1CCC(N2Cc3cc(CN4CCN(C(c5ccccc5)c5ccncc5)CC4)c(F)cc3C2=O)C(=O)N1 (stereo not drawn) [GT-04248, 3-(6-fluoro-1-oxo-5-((4-(phenyl(pyridin-4-yl)methyl)piperazin-1-yl)methyl)isoindolin-2-yl)piperidine-2,6-dione] | 500 to 1000 | A (A represents 0% ≤ substrate protein remaining % ≤ 50%) | 50 to 100 | 10 to 50 |  | B (B represents substrate protein remaining % > 50%) | A (A represents 0% ≤ substrate protein remaining % ≤ 50%) | 10 to 50 | 50 to 100 |  | 100 to 500 | 100 to 500
O=C1CCC(N2Cc3cc(CN4CCN(C(c5ccccc5)c5cccnc5)CC4)c(F)cc3C2=O)C(=O)N1 (stereo not drawn) [GT-04251, 3-(6-fluoro-1-oxo-5-((4-(phenyl(pyridin-3-yl)methyl)piperazin-1-yl)methyl)isoindolin-2-yl)piperidine-2,6-dione] | < 500 | A (A represents 0% ≤ substrate protein remaining % ≤ 50%) | 10 to 50 | 10 to 50 |  | A (A represents 0% ≤ substrate protein remaining % ≤ 50%) | A (A represents 0% ≤ substrate protein remaining % ≤ 50%) | 10 to 50 | 50 to 100 | 100 to 500 | 100 to 500 | 100 to 500
O=C1CCC(N2Cc3cc(CN4CCN([C@H](c5ccccc5)c5ccccn5)CC4)ccc3C2=O)C(=O)N1 (stereo partly drawn) [GT-04523, 3-(1-oxo-5-((4-((R)-phenyl(pyridin-2-yl)methyl)piperazin-1-yl)methyl)isoindolin-2-yl)piperidine-2,6-dione] | 500 to 1000 | A (A represents 0% ≤ substrate protein remaining % ≤ 50%) | 1 to 10 |  | 1 to 10 | A (A represents 0% ≤ substrate protein remaining % ≤ 50%) | A (A represents 0% ≤ substrate protein remaining % ≤ 50%) | 1 to 10 | 50 to 100 | 500 to 1000 | 50 to 100 | 10 to 50
O=C1CCC(N2Cc3cc(CN4CCN([C@@H](c5ccccc5)c5ccccn5)CC4)ccc3C2=O)C(=O)N1 (stereo partly drawn) [GT-04524, 3-(1-oxo-5-((4-((S)-phenyl(pyridin-2-yl)methyl)piperazin-1-yl)methyl)isoindolin-2-yl)piperidine-2,6-dione] | 500 to 1000 | A (A represents 0% ≤ substrate protein remaining % ≤ 50%) | 10 to 50 |  | 10 to 50 | A (A represents 0% ≤ substrate protein remaining % ≤ 50%) | A (A represents 0% ≤ substrate protein remaining % ≤ 50%) | 10 to 50 | 10 to 50 |  | 500 to 1000 | 100 to 500
